By inhibition is commonly meant the change of the read-out against control, counted positive when it falls. For orientation: IC50 means the concentration that inhibits the measured activity by half. A higher IC50 goes with lower potency.

Three molecules from patent US20080188654A1, “Compounds for treatment of inflammation, diabetes and related disorders” (Theracos, Inc., priority 2001, published 2008) can be followed below.

Each structure is given as a SMILES string. Where only a bound is given, the exact number is not on record here.

In series [1] the test system is 3T3-L1 differentiated adipocytes. As to the kind of experiment: Glucose uptake in 3T3-L1 adipocytes (14C-deoxyglucose). Type of series: cell-based, mouse. To be noted: different concentrations, 48 hours; percentage of basal; FIG. 1.
Another series relates to 3T3-L1 adipocytes. Put plainly: Insulin-stimulated glucose uptake in 3T3-L1 adipocytes. Type of series: cell-based, mouse. To be noted: 5 μM, 48 hours; compared to vehicle; FIG. 2.
The test system of series [2] is ob/ob mice. As to the kind of experiment: Glucose-lowering effect in ob/ob mice. Type of series: in vivo, mouse. To be noted: 10 mg/kg daily oral, p<0.05.
The subject of series [3] is ob/ob mice. Put plainly: Lipid-lowering effects in ob/ob mice. Type of series: in vivo, mouse. To be noted: 10 mg/kg daily oral, day 8, versus vehicle, p<0.05.
Series [4] concerns TNF-alpha. Put plainly: Inhibition of LPS-induced TNF-alpha production in RAW264.7 cells (ELISA). Type of series: cell-based, mouse. (In general: ELISA stands for enzyme-linked immunosorbent assay.)
The next series deals with IL-1 beta. Put plainly: Inhibition of LPS-induced IL-1 beta production in RAW264.7 cells (ELISA). Type of series: cell-based, mouse.
The subject of the next series is IL-6. As to the kind of experiment: Inhibition of LPS-induced IL-6 production in RAW264.7 cells (ELISA). Type of series: cell-based, mouse.
For a further series, the system named is iNOS. As to the kind of experiment: Inhibition of LPS-induced iNOS production in RAW264.7 cells (Western blot). Type of series: cell-based, mouse. To be noted: 10, 30 or 100 μM; FIG. 8. On the technique in general: In western blotting, separated proteins are transferred to a membrane and probed.
The next series has as its system COX-2. As to the kind of experiment: Inhibition of LPS-induced COX-2 production in RAW264.7 cells (Western blot). Type of series: cell-based, mouse. To be noted: LPS-stimulated cells; FIG. 8.
The test system of the next series is COX-1. Put plainly: COX-1 production in LPS-stimulated RAW264.7 cells (Western blot). Type of series: cell-based, mouse. To be noted: FIG. 8.
Series [5] relates to TNF-alpha. Put plainly: Inhibition of LPS-induced TNF-alpha release by human monocytes. Type of series: cell-based. To be noted: Monocyte, read-out: Percent Inhibition of TNF-alpha Release.
Series [6] has as its system PDE4 partially purified from human U-937 promonocytic cells. Put plainly: Inhibition of PDE4 enzyme activity. Type of series: biochemical.
Series [7] addresses T1, PDE3 partially purified from human platelets (Homo sapiens, UniProt Q14432).
T1 construct: PDE3 partially purified from human platelets were used; from tissue; host or cells: human platelets (partially purified enzyme)
Put plainly: Inhibition of PDE3 enzyme activity. To be noted: read-out: Percent Inhibition of Enzyme Activity. Type of series: biochemical.

The subject of the next series is p44/42 MAP kinase. As to the kind of experiment: Inhibition of phosphorylation of p44/42 MAP kinase in RAW 264.7 gamma NO(-) cells (Western blot). Type of series: cell-based, mouse. To be noted: for inhibition of LPS-induced phosphorylation of p44/42 MAP kinase: 10 ng/ml LPS.
The test system of series [8] is mouse mesenteric lymph node cells. As to the kind of experiment: Inhibition of anti-CD3/anti-CD28 stimulated lymphocyte proliferation. Type of series: cell-based.
Series [9] relates to human elutriated monocytes. Put plainly: Cell viability of human monocytes (MTS/PMS assay). Type of series: cell-based. To be noted: 30 μM, 20 h.

T1 sequence (Q14432 whole entry): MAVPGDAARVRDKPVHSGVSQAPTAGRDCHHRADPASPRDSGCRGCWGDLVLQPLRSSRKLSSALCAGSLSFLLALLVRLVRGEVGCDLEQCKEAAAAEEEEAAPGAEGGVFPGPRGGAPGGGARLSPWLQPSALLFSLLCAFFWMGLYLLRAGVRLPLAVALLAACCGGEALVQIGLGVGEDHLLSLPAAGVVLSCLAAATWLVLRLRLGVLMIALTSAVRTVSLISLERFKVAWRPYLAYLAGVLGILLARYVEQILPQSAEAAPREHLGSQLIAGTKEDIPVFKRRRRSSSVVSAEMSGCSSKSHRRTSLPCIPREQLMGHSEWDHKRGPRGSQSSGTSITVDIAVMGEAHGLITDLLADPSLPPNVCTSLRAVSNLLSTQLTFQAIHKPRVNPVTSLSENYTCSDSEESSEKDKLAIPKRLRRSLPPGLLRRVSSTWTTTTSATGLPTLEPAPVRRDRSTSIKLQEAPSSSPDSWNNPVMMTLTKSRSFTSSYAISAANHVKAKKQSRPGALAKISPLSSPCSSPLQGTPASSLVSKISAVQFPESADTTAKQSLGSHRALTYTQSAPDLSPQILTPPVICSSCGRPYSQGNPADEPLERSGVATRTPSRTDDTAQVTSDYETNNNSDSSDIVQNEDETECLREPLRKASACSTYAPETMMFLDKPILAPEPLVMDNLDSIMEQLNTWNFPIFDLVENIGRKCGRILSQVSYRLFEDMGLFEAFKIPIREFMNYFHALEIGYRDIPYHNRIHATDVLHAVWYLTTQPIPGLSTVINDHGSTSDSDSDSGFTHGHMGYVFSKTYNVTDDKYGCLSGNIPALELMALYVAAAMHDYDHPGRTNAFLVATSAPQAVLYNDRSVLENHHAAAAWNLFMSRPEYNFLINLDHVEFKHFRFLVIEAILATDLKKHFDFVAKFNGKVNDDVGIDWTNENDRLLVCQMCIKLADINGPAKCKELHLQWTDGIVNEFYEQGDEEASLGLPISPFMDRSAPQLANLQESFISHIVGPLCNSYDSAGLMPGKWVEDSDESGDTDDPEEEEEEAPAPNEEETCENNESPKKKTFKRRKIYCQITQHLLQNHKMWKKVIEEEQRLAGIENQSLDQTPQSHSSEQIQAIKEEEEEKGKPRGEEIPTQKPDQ

As for `COC(=O)C(=Cc1cc(OC)cc(OC)c1)c1ccc(Oc2ccc(CCC(=O)NC(N)=O)cc2)cc1` [Compound 1, 3-(3,5-dimethoxyphenyl)-2-{4-[4-(3-oxo-3-ureidopropyl)-phenoxy]-phenyl}-acrylic acid methyl ester], in [1], the glucose uptake result is listed as “dose-dependent increase in glucose uptake”. Moreover, in the series on 3T3-L1 adipocytes, the “stimulation of glucose uptake by insulin” value was “enhanced the stimulation of glucose uptake by insulin”. The “decrease in blood glucose levels” value with ob/ob mice [2] (day 6, versus vehicle) amounted to 36%. Besides, the “decrease in blood glucose levels” value with ob/ob mice [2] (day 8, versus vehicle) is given as 23%. Moreover, in the series with ob/ob mice [3], the “free fatty acids lower” value amounted to 19% and the serum triglycerides lower is listed as 49%. In the series with TNF-alpha [4] (10, 30 or 100 μM, FIG. 5), the “inhibition of LPS-induced TNF-alpha production” value is recorded as “significantly inhibited”. Besides, in the series on TNF-alpha [4] (versus 1 μM dexamethasone), the “inhibitory effect on TNF-alpha compared with dexamethasone” value is on record as “approached that seen with dexamethasone”. Moreover, the “inhibition of LPS-induced IL-1 beta production” value in the series with IL-1 beta (10, 30 or 100 μM, FIG. 6) is recorded as “significantly inhibited”. The “inhibition of IL-1 beta compared with dexamethasone” value in the series with IL-1 beta (versus 1 μM dexamethasone) is “of the same approximate magnitude as that seen with dexamethasone”. For the same molecule, the “inhibition of LPS-induced IL-6 production” value in the series with IL-6 (10, 30 or 100 μM, FIG. 7) is given as “significantly inhibited”. The “inhibitory effect on IL-6 compared with dexamethasone” value in the series with IL-6 (versus 1 μM dexamethasone) is “greater than that observed with dexamethasone”. The “inhibition of LPS-induced iNOS production” value in the series on iNOS is “dose-dependent inhibition”. In addition, the “inhibition of COX-2 production” value in the series on COX-2 is “selectively inhibited production of COX-2”. Also, the “inhibition of COX-1 production” value with COX-1 was “not COX-1”.
`COc1cc(/C=C(/C(=O)N(C)C)c2ccc(Oc3ccc(CCC(=O)NC(N)=O)cc3)cc2)cc(OC)c1` [Compound 13, 3-(3,5-dimethoxyphenyl)-N,N-dimethyl-2-{4-[4-(3-oxo-3-ureido-propyl)-phenoxy]-phenyl}-acrylamide]: the inhibition at 0.3 µM in the series on TNF-alpha [5] (0.3 μM) was found to be 15%. Besides, the inhibition at 1 µM in the series on TNF-alpha [5] (1.0 μM) stood at 40%; in series [7] (PDE3, 1 μM), 20%. The inhibition at 3 µM in the series on TNF-alpha [5] was found to be 70%. For the same molecule, the inhibition at 10 µM in the series with TNF-alpha [5] is 78%; in series [7] (PDE3, 10 μM), 52%; in [8] (Mus musculus, Lymphocyte, 10 μM, stimulated by anti-CD3/anti-CD28 monoclonal antibodies) it was approximately 50%. For the same molecule, the inhibition at 30 µM stood at 78% in the series with TNF-alpha [5] (30 μM) and 55% in series [7] (PDE3, 30 μM). In [6] (PDE4), this molecule showed an IC50 of less than 1000 nM. Also, the “Percent Inhibition of Enzyme Activity” value is given as 85% in [6] (PDE4, 1 μM); 98% in series [6] (PDE4, 10 μM); 102% in [6] (PDE4, 30 μM). Besides, the “inhibition of LPS-induced phosphorylation of p44/42 MAP kinase” value in the series on p44/42 MAP kinase (10 μM) is on record as “not”; in the series on p44/42 MAP kinase (30 μM) it was “inhibited”. Moreover, the “inhibition of LPS/IFN-gamma induced phosphorylation of p44/42” value in the series with p44/42 MAP kinase (30 μM and 10 μM, LPS (10 ng/ml)/IFN-gamma (10 U/ml)) is recorded as “inhibited LPS/IFN-gamma induced phosphorylation of p44/42 in a dose-dependent manner”. Besides, the “O.D. (Mean ± SD)” value in [8] (10 μM + anti-CD3/anti-CD28 mAbs, 67 h, MTS/PMS, 505 nm) was 0.578 ± 0.012.
`COc1cc(/C=C(/C(=O)N2CCCCC2)c2ccc(Oc3ccc(CCC(=O)NC(N)=O)cc3)cc2)cc(OC)c1` [Compound 51, [3-(4-{4-[2-(3,5-dimethoxyphenyl)-1-(piperidine-1-carbonyl)-vinyl]-phenoxy}-phenyl)-propionyl]-urea]: in the series on TNF-alpha [5], the inhibition at 3 µM was 25% and the inhibition at 10 µM was 57%. Also, the Cell viability result in series [9] is reported as “* (Cell viability <70%)”.
